Patent US12544373B2, “Treatment of cancer, inflammatory diseases and autoimmune diseases” (Usher III Initiative, Inc., priority 2020, dated 2026)
Values joined by “and” are separate entries in the source; they are usually repeats but may differ in a detail not shown here. Equal values may be shown once. Read-outs that look alike come from different tables or passages of the source.

Assays:
[1] = system: 10 human tumor cell lines; assay: CellTiter-Blue 2D monolayer assay (Example 1), whole panel; assay type: cell-based
Description: (§1) Compound 85 was assessed in 10 human tumor cell lines (see Table 3) for anti-cancer activity in vitro using a CellTiter-Blue® based 2D monolayer assay.
(§2) CellTiter-Blue® Cell Viability Assay: Tumor cells were grown at 37° C. in a humidified atmosphere with 5% CO2 in RPMI medium, supplemented with 10% (v/v) fetal calf serum and 50 μg/ml gentamicin (140 μl/well). Cultures were incubated at 37° C. and 5% CO2 in a humidified atmosphere. After 24 hours, 10 μl of Compound 85 was added, and left on the cells for another 72 hours (incubation period). Compound 85 was tested at 5 concentrations (0.003 μM, 0.03 μM, 0.3 μM, 3 μM, and 30 μM) and serially diluted in DMSO, mixed with cell culture medium, and added to the assay plates by using a Tecan Freedom EVO 200 robotic platform. The DMSO concentration was kept constant at 0.3% yip across the assay plate. Every 96 well plate included six DMSO-treated control wells and Compound 85-treated wells in duplicate at 5 concentrations. Viability of cells was quantified using the CellTiter-Blue® cell viability assay (Promega G8081). After incubation of cells, the CellTiter-Blue® reagent was brought to ambient temperature. Next, 20 μl of CellTiter-Blue® reagent were added to each well. After incubation tier up to 4 hours, fluorescence (FU) was measured using the EnSpire® multimode plate reader (Perkin Elmer) ([…]).
(§3) Data Evaluation: Sigmoidal concentration-response curves were fitted to the data points (test-versus-control; T/C values) obtained for each tumor model using 4 parameter non-linear curve fit (Charles River DRS Datawarehouse Software). Drug effects are expressed in terms of the percentage of the fluorescence signal, obtained by comparison of the mean signal in the treated wells with the mean signal of the untreated controls (T/C-value [%]) (Table 4). IC50 and IC70 values were reported as relative and absolute IC50 and IC70 values (Table 5). The absolute IC50 and IC70 values reflect the concentration of Compound 85 that achieves T/C=50% and T/C=30%, respectively. The relative IC50 value is the concentration of Compound 85 that gives a response half way between the top and bottom plateau of the sigmoidal concentration-response curve (inflection point of the curve).

[2] = system: PAXF HUP-T3; assay: CellTiter-Blue Cell Viability Assay (Example 2), pancreatic; assay type: cell-based, human; settings: for T/C %: 72 h
Text: The CellTiter-Blue® Cell Viability Assay was used to assess the viability of cells from various cancer cell lines, in the presence or absence of Compound 85 (at different concentrations). This assay provides a homogeneous, fluorometric method for estimating the number of viable cells present in multi-well plates. Viable cells retain the ability to reduce resazurin to resorufin, which is highly fluorescent. […] The fluorescence produced is proportional to the number of viable cells. There is a linear relationship between cell number and fluorescence.
Cancer cells (see Table 6) were harvested from exponential phase cultures, counted and plated in 96 well flat-bottom microtiter plates, at a cell density 6,000-20,000 cells/well, depending on the cell line's growth rate. The culture medium was supplemented with 10% (v/v) foetal calf serum and 50 μg/mL gentamicin (140 μL/well). Cultures were incubated at 37° C. and 5% CO2 in a humidified atmosphere.
Compound 85 was serially diluted in DMSO, and five Compound 85 concentrations in half-log increments were used: 0.03 μM, 0.09 μM, 0.30 μM, 1.0 μM, and 3.0 μM. After 24 h, 10 μL of Compound 85 (dissolved in DMSO) or control (DMSO) medium were added, in duplicates, and left on the cells for another 72 h. Compound 85 solutions were added to the assay plates using a Tecan Freedom EVO 200 robotic platform. The DMSO concentration was kept constant at 0.3% v/v across the assay plate.
After incubation of up to 72 hours, fluorescence (FU) was measured using the EnSpire® multimode plate reader (Perkin Elmer) (excitation λ=570 nm, emission λ=600 nm).
Cancer cell lines used: Compound 85's anti-cancer effect was tested in 20 human cancer-cell lines representing nine cancer types (Table 6).
The percentage of viable cells in the presence of Compound 85 (Test condition, T), at different concentrations, are presented in Table 7 and expressed as a percentage of the number of viable cells in the presence of DMSO without Compound 85 (Control condition, C).
The relative IC50 is determined as the Compound 85 concentration giving a response halfway between the maximum cell viability signal (i.e., a 100% cell viability, no Compound 85 response) and the minimal viability signal (i.e. maximum cell viability inhibition achieved by Compound 85), in a sigmoidal concentration-effect curve.
The absolute IC50 is determined as the concentration that is associated with a T/C ratio of 50%.

[3] = system: PRXF DU-145; assay: CellTiter-Blue 2D monolayer assay (Example 1), prostate; assay type: cell-based, human; settings: for Test/Control (%): 72 h
Description: as §1, §2, §3

[4] = system: PRXF PC-3; assay: as above; assay type: cell-based, human; settings: for Test/Control (%): 72 h
Description: as §1, §2, §3

[5] = system: CNXF U-87 MG; assay: CellTiter-Blue 2D monolayer assay (Example 1), glioblastoma; assay type: cell-based, human; settings: for Test/Control (%): 72 h
Description: as §1, §2, §3

[6] = system: CNXF 498; assay: as above; assay type: cell-based, human; settings: for Test/Control (%): 72 h
Description: as §1, §2, §3

[7] = geometric mean over 10 cell lines

SMILES: CC(C)(O)Cn1nc(-c2ccccc2)c2c(Cl)c(-c3ccccc3)nnc21 [Compound 85]
- inhibition of the tumor cell growth ([1]; all cell lines of Table 3): concentration-dependent inhibition
- Geometric mean Abs. IC70 [1, 7]: 1258 nM
- Geometric mean Rel. IC70 [1, 7]: 1226 nM
- IC50 ([1]; geometric mean over 10 cell lines, read-out: Geometric mean Abs. IC50): 950 nM and 948 nM
- IC50 ([1]; geometric mean over 10 cell lines, read-out: Geometric mean Rel. IC50): 926 nM
- Absolute IC70 [2]: 723 nM
- Relative IC70 [2]: 602 nM
- T/C % ([2]; 0.03 μM): 95%
- T/C % ([2]; 0.095 μM): 102%
- T/C % ([2]; 0.3 μM): 88%
- T/C % ([2]; 0.95 μM): 21%
- T/C % ([2]; 3.0 μM): 16%
- IC50 ([2]; read-out: Absolute IC50): 532 nM
- IC50 ([2]; read-out: Relative IC50): 487 nM
- Rel. IC70 [3]: 1376 nM
- Test/Control (%) ([3]; 0.003 μM): 100%
- Test/Control (%) ([3]; 0.03 μM): 110%
- Test/Control (%) ([3]; 0.3 μM): 102%
- Test/Control (%) ([3]; 3 μM): 11%
- Test/Control (%) ([3]; 30 μM): 6%
- Abs. IC70 ([3]; T/C=30%): 1528 nM
- IC50 ([3]; T/C=50%, read-out: Abs. IC50): 1090 nM
- Bot. (%) ([3]; bottom plateau of curve): 6%
- IC50 ([3]; read-out: Rel. IC50): 1000 nM
- Top (%) ([3]; top plateau of curve): 105%
- Rel. IC70 [4]: 1326 nM
- Test/Control (%) ([4]; 0.003 μM): 104%
- Test/Control (%) ([4]; 0.03 μM): 103%
- Test/Control (%) ([4]; 0.3 μM): 103%
- Test/Control (%) ([4]; 3 μM): 2%
- Test/Control (%) ([4]; 30 μM): 1%
- Abs. IC70 ([4]; T/C=30%): 1349 nM
- IC50 ([4]; T/C=50%, read-out: Abs. IC50): 1100 nM
- Bot. (%) ([4]; bottom plateau of curve): 1%
- IC50 ([4]; read-out: Rel. IC50): 1080 nM
- Top (%) ([4]; top plateau of curve): 103%
- Rel. IC70 [5]: 987 nM
- Test/Control (%) ([5]; 0.003 μM): 99%
- Test/Control (%) ([5]; 0.03 μM): 102%
- Test/Control (%) ([5]; 0.3 μM): 102%
- Test/Control (%) ([5]; 3 μM): 1%
- Test/Control (%) ([5]; 30 μM): 4%
- Abs. IC70 ([5]; T/C=30%): 994 nM
- IC50 ([5]; T/C=50%, read-out: Abs. IC50): 940 nM
- Bot. (%) ([5]; bottom plateau of curve): 3%
- IC50 ([5]; read-out: Rel. IC50): 935 nM
- Top (%) ([5]; top plateau of curve): 101%
- Rel. IC70 [6]: 1868 nM
- Test/Control (%) ([6]; 0.003 μM): 106%
- Test/Control (%) ([6]; 0.03 μM): 107%
- Test/Control (%) ([6]; 0.3 μM): 113%
- Test/Control (%) ([6]; 3 μM): 2%
- Test/Control (%) ([6]; 30 μM): 1%
- Abs. IC70 ([6]; T/C=30%): 1901 nM
- IC50 ([6]; T/C=50%, read-out: Abs. IC50): 1740 nM
- Bot. (%) ([6]; bottom plateau of curve): 1%
- IC50 ([6]; read-out: Rel. IC50): 1710 nM
- Top (%) ([6]; top plateau of curve): 109%
